Patent publication US12186283B2, “Bismuth-thiol compositions and methods of use” (Microbion Corporation, priority 2018, dated 2025)
Values after ≈ are worked out from the molar mass of the structure shown. Like-named read-outs stand apart in the source and are kept apart here. Each block holds one molecule with its values, some of them ahead of it.

How the values were obtained:
[1] = test system: Enterococcus spp. (E. faecalis, E. faecium); assay: Broth microdilution MIC (Example 11); format: cell-based; conditions: Enterococcus faecium, VRE, E. faecium MMX 485; VRE, vanA, LevR, CipR, EryR; read-out: MIC
Pseudomonas aeruginosa = conditions: P. aeruginosa MMX 103 (ATCC 27853); cited from earlier work
[2] = test system: Staphylococcus aureus (MRSA); conditions: S. aureus MMX 101 (ATCC 29213); cited from earlier work
Escherichia coli = conditions: E. coli MMX 102 (ATCC 25922); cited from earlier work
[3] = test system: S. pneumoniae (pneumococci); conditions: S. pneumoniae MMX 6837 (ATCC 49619); cited from earlier work
[4] = test system: beta-hemolytic streptococci (S. pyogenes, S. agalactiae); assay: Broth microdilution MIC (Example 11); format: cell-based, Streptococcus pyogenes, Streptococcus agalactiae; conditions: read-out: MIC
Candida spp. [5] = conditions: C. parapsilosis ATCC 22019, CLSI established QC range, cited from earlier work
[6] = test system: Candida spp. (C. parapsilosis, C. albicans, C. glabrata, C. tropicalis); assay: Broth microdilution MIC, yeast (Example 11); format: cell-based
Candida spp. [7] = assay: Broth microdilution MIC, yeast (Example 13), group statement and QC; format: cell-based; conditions: C. parapsilosis ATCC 22019, comparators, single value
E. coli ATCC 25922 = assay: Broth microdilution MIC, QC organism (Example 13, Table 110); format: cell-based, Escherichia coli
From the text: (§1) MECs were only reported where observed.

Aspergillus spp. [8] = assay: Broth microdilution MIC/MEC, mold (Example 13); format: cell-based
Aspergillus spp. [9] = conditions: cited from earlier work
Candida krusei [10] = conditions: C. krusei ATCC 6258, CLSI established QC range, cited from earlier work
S. aureus ATCC 29213 = assay: Broth microdilution MIC, QC organism (Example 13, Table 110); format: cell-based, Staphylococcus aureus
From the text: as §1

[11] = test system: Candida spp. (C. parapsilosis, C. albicans, C. glabrata, C. tropicalis); conditions: C. parapsilosis MMX 2323 (ATCC 22019), cited from earlier work
Candida krusei [12] = assay: Broth microdilution MIC, yeast (Example 13); format: cell-based; conditions: C. krusei ATCC 6258 (QC, Table 110), comparators, single value
[13] = A. flavus ATCC 204304 (QC, Table 110)
[14] = A. fumigatus ATCC MYA-3626 (QC, Table 110)
[15] = A. flavus ATCC 204304, CLSI established QC range
[16] = A. fumigatus ATCC MYA-3626, CLSI established QC range

- MIC [1]: > 32 µg/mL
SMILES: CC(C)(O/N=C(\C(=O)N[C@@H]1C(=O)N2C(C(=O)[O-])=C(C[n+]3ccccc3)CS[C@H]12)c1csc(N)n1)C(=O)O [Ceftazidime]
- CLSI QC range (MIC) (Pseudomonas aeruginosa): (1-4)
- CLSI QC range (MIC) [2]: (4-16) μg/mL
- CLSI QC range (MIC) (Escherichia coli): (0.06-0.5) μg/mL

- MIC [1]: > 64 µg/mL
SMILES: CC[C@H]1OC(=O)[C@H](C)[C@@H](O[C@H]2C[C@@](C)(OC)[C@@H](O)[C@H](C)O2)[C@H](C)[C@@H](O[C@@H]2O[C@H](C)C[C@H](N(C)C)[C@H]2O)[C@](C)(O)C[C@@H](C)C(=O)[C@H](C)[C@@H](O)[C@]1(C)O [Erythromycin]
- CLSI QC range (MIC) [2]: (0.25-1) μg/mL
- MIC, CLSI QC range [3]: (0.03-0.12) μg/mL
- MIC ([4]; S. agalactiae MMX 3741, ERY^R CC^R): 8 µg/mL (≈ 10.9 µM)
- MIC ([4]; S. agalactiae MMX 3743, ERY^R CC^R): > 8 µg/mL
- MIC ([4]; S. agalactiae MMX 4077, ERY^R CC^R): > 8 µg/mL
- MIC ([4]; S. agalactiae MMX 4079, ERY^R CC^R Pen^R MEM^R): > 8 µg/mL
- MIC ([4]; S. agalactiae MMX 4086, ERY^R CC^R): > 8 µg/mL

- MIC ([6]; C. albicans MMX 7039, Sensitive, 24 hr): 0.5, 0.5 μg/mL
- MIC ([6]; C. albicans MMX 7039, Sensitive, 48 hr): 0.5, 0.5 μg/mL
- MIC ([6]; C. albicans MMX 7055, Sensitive, 24 hr): 0.25 µg/mL (≈ 0.271 µM)
- MIC ([6]; C. albicans MMX 7055, Sensitive, 48 hr): 0.5 µg/mL (≈ 0.541 µM)
- MIC ([6]; C. glabrata MMX 7086, FLU^R, 24 hr): 0.5 µg/mL (≈ 0.541 µM)
- MIC ([6]; C. glabrata MMX 7086, FLU^R, 48 hr): 1 µg/mL (≈ 1.08 µM)
- MIC ([6]; C. glabrata MMX 7318, FLU^R, 24 hr): 0.5 µg/mL (≈ 0.541 µM)
- MIC ([6]; C. glabrata MMX 7318, FLU^R, 48 hr): 1 µg/mL (≈ 1.08 µM)
- MIC ([6]; C. parapsilosis MMX 2323 (ATCC 22019), QC, 24 hr): 0.5 µg/mL (≈ 0.541 µM)
- MIC ([6]; C. parapsilosis MMX 2323 (ATCC 22019), QC, 48 hr): 1 µg/mL (≈ 1.08 µM)
- MIC ([6]; C. parapsilosis MMX 7370, FLU^R, 24 hr): 0.5 µg/mL (≈ 0.541 µM)
- MIC ([6]; C. parapsilosis MMX 7370, FLU^R, 48 hr): 1 µg/mL (≈ 1.08 µM)
- MIC ([6]; C. parapsilosis MMX 7555, FLU^R, 24 hr): 0.5, 0.5 μg/mL
- MIC ([6]; C. parapsilosis MMX 7555, FLU^R, 48 hr): 0.5, 0.5 μg/mL
- MIC ([6]; C. tropicalis MMX 7247, FLU^R, 24 hr): 0.5 µg/mL (≈ 0.541 µM)
- MIC ([6]; C. tropicalis MMX 7247, FLU^R, 48 hr): 1 µg/mL (≈ 1.08 µM)
- MIC ([6]; C. tropicalis MMX 7248, FLU^R, 24 hr): 0.5 µg/mL (≈ 0.541 µM)
- MIC ([6]; C. tropicalis MMX 7248, FLU^R, 48 hr): 1 µg/mL (≈ 1.08 µM)
- MIC ([6]; C. tropicalis MMX 7360, FLU^R, 24 hr): 0.5, 0.5 μg/mL
- MIC ([6]; C. tropicalis MMX 7360, FLU^R, 48 hr): 0.5, 0.5 μg/mL
- MIC 24 hr (Candida spp. [7]; 24 hr): 0.5 µg/mL (≈ 0.541 µM)
- MIC 48 hr (Candida spp. [7]): 0.5 µg/mL (≈ 0.541 µM)
- MIC 24 hr (E. coli ATCC 25922): > 64 µg/mL
- MIC 24 hr (Aspergillus spp. [8]; [13]): 0.5 µg/mL (≈ 0.541 µM)
- MIC 48 hr (Aspergillus spp. [8]; [13]): 1 µg/mL (≈ 1.08 µM)
- MIC 24 hr (Aspergillus spp. [8]; [14]): 0.5 µg/mL (≈ 0.541 µM)
- MIC 48 hr (Aspergillus spp. [8]; [14]): 1 µg/mL (≈ 1.08 µM)
- MIC 24 hr (S. aureus ATCC 29213): > 64 µg/mL
- MIC 24 hr (Candida krusei [12]): 0.5 µg/mL (≈ 0.541 µM)
- MIC 48 hr (Candida krusei [12]): 0.5 µg/mL (≈ 0.541 µM)
SMILES: C[C@@H]1[C@H](O)[C@@H](C)/C=C/C=C/C=C/C=C/C=C/C=C/C=C/[C@H](O[C@@H]2O[C@H](C)[C@@H](O)[C@H](N)[C@@H]2O)C[C@@H]2O[C@](O)(C[C@@H](O)C[C@@H](O)[C@H](O)CC[C@@H](O)C[C@@H](O)CC(=O)O[C@H]1C)C[C@H](O)[C@H]2C(=O)O [Amphotericin B]
- QC Range 24 hr (Candida spp. [5]): 0.25-2
- QC Range 48 hr (Candida spp. [5]): 0.5-4
- QC Range 48 hr (Aspergillus spp. [9]; [15]): 0.5-4
- QC Range 48 hr (Aspergillus spp. [9]; [16]): 0.5-4
- QC Range 24 hr (Candida krusei [10]): 0.5-2
- QC Range 48 hr (Candida krusei [10]): 1-4
- MIC, CLSI QC range ([11]; 24 hr): 0.25 to 2 µg/mL
- MIC, CLSI QC range ([11]; 48 hr): 0.5 to 4 µg/mL

SMILES: C[C@@H](c1ncncc1F)[C@](O)(Cn1cncn1)c1ccc(F)cc1F [Voriconazole]
- QC Range 24 hr (Candida spp. [5]): 0.015-0.12
- QC Range 48 hr (Candida spp. [5]): 0.03-0.25
- MIC 48 hr (Candida spp. [7]): 0.12 µg/mL (≈ 0.344 µM)
- MIC 24 hr (E. coli ATCC 25922): > 64 µg/mL
- MIC 24 hr (Aspergillus spp. [8]; [13]): 0.12 µg/mL (≈ 0.344 µM)
- MIC 24 hr (Aspergillus spp. [8]; [14]): 0.25 µg/mL (≈ 0.716 µM)
- QC Range 48 hr (Aspergillus spp. [9]; [15]): 0.5-4
- QC Range 48 hr (Aspergillus spp. [9]; [16]): 0.25-1
- QC Range 24 hr (Candida krusei [10]): 0.06-0.5
- QC Range 48 hr (Candida krusei [10]): 0.12-1
- MIC 24 hr (S. aureus ATCC 29213): > 64 µg/mL
- MIC 24 hr (Candida krusei [12]): 0.12 µg/mL (≈ 0.344 µM)
- MIC 48 hr (Candida krusei [12]): 0.5 µg/mL (≈ 1.43 µM)
